Laboratory results from patent US11617708B2, “Cosmetic composition capable of strengthening epidermal tight junctions for the prevention and/or treatment of atopic dermatitis” (NAOS INSTITUTE OF LIFE SCIENCE, priority 2020, dated 2023).

System: claudin-1
Experiment: Expression of claudin-1 by in situ immunolabelling in an in vitro cell model of atopic dermatitis (calcium-differentiated keratinocytes inhibited by alarmins)
Format: cell-based, human
Description: • cell type: normal human epidermal keratinocytes (NHEK; reference: Bioalternatives K34 1), used at 3rd passage—culture conditions: 37° C., 5% CO2 • culture medium: Keratinocyte-SFM complemented with Epidermal Growth Factor (or EGF) at a concentration of 0.25 ng/mL, pituitary extract (PE) at a concentration of 25 μg/mL and gentamycin at a concentration of 25 μg/mL • assay medium used for this example: Keratinocyte-SFM complemented with gentamycin at a concentration of 25 μg/mL. […]
For each condition, the analysis was carried out from 30 image quantifications (n=30) except for the control conditions produced from 60 image quantifications (n=60). A first evaluation of the results was carried out by taking all of the quantifications into account, then a second solely with the results with replicated cultures, i.e. with 3 replications (n=3), except for the control conditions which were carried out with 6 replications (n=6). […]
Labelling was quantified by measuring the intensity of fluorescence of the proteins with respect to the total number of cells identified by staining with bis-benzimide (integration of digital data by the Developer Toolbox 1.5 software, GE Health Care).
The intergroup comparisons were carried out with the aid of the bilateral unpaired Student t-assay. […] However, for n<5, the calculated data were provided by way of indication only. […]

| Compound | expression of claudin-1 after differentiation with CaCl2 (NHEK, CaCl2 0.75 mM, without alarmins, versus not stimulated/not differentiated control) | effect on the expression of claudin-1 (% with respect to T+, inhibited control = 100%) (NHEK differentiated with CaCl2 0.75 mM, compounds 1 h before alarmins (histamine 50 μM, IL-33 100 ng/mL, IL-1β 100 ng/mL), 72 h, arginine 0.02-0.2%, glycosylceramides 0.0003-0.003%, FIG. 1) |
| --- | --- | --- |
| [Ca+2].[Cl-].[Cl-] [CaCl2] | induced an increase in the expression of the analysed tight junctions protein (claudin-1) | – |
| N=C(N)NCCC[C@H](N)C(=O)O [arginine] | – | significantly reversed the inhibiting effect of the mixture of alarmins on the expression of claudin-1 |
